From patent US10123993B2, “Cyclic ureas as inhibitors of rock” (BRISTOL-MYERS SQUIBB COMPANY, priority 2015, dated 2018) come the findings set out here.

Broadly, the IC50 is the concentration that gives 50% inhibition. A high value points to a need for much substance.

Each structure is given as a SMILES string.

ROCK2, sequence (O75116 whole entry, species assumed): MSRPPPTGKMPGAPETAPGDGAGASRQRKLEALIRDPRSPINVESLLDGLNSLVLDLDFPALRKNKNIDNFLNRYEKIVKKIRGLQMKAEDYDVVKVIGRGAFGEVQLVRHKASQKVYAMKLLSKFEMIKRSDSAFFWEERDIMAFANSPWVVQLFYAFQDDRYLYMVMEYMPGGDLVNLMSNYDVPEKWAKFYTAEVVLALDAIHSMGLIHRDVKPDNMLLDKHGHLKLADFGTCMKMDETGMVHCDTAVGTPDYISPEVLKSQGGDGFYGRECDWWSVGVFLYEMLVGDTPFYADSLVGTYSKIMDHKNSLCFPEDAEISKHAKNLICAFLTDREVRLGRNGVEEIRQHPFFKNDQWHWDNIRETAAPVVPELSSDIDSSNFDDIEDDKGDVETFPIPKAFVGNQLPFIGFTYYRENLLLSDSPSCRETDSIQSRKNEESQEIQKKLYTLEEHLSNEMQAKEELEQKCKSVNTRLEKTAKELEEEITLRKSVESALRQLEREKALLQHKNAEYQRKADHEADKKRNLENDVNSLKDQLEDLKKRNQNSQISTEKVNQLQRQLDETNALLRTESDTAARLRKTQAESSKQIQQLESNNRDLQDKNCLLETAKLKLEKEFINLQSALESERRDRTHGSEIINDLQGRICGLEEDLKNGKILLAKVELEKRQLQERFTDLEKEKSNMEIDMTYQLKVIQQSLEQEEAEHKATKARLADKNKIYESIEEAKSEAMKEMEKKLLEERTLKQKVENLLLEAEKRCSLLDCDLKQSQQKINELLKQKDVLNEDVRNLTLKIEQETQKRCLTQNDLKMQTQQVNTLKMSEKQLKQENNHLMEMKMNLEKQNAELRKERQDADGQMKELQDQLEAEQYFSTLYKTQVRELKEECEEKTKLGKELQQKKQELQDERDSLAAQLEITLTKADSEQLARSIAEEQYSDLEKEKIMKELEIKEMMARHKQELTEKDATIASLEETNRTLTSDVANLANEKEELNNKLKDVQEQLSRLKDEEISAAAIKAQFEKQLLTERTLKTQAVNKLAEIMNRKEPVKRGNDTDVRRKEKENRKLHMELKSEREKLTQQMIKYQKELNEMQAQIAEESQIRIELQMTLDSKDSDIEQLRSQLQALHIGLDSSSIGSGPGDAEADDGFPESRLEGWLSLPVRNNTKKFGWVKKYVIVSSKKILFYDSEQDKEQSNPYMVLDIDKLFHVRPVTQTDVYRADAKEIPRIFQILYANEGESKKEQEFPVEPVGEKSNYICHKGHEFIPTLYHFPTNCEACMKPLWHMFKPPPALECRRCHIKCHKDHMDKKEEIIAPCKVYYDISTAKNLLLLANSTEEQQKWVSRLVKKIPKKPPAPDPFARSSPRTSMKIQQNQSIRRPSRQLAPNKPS

In this test the target is ROCK2 (Homo sapiens, UniProt O75116). As to the kind of experiment: ROCK2 kinase inhibition assay (Caliper LABCHIP, FITC peptide substrate). In kind it is biochemical. Conditions: 5 μM ATP, 1.5 μM peptide substrate; value ranges. An outline of the steps:
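Rho kinase with 5 μM ATP and 1.5 μM FITC-AHA-AKRRRLSSLRA-OH peptide in HEPES pH 7.5, 20 mM MgCl2, 0.015% Brij-35, 4 mM DTT, DMSO <2%. EDTA stop; phospho and non-phospho peptide separated on LabChip. IC50 from dose-response fit.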
In turn, `CCc1cc(N2CCN(Cc3cccc(OCC4CC4)c3)C2=O)ccc1-c1cn[nH]c1` [Example 285, 1-(3-(cyclopropylmethoxy)benzyl)-3-(3-ethyl-4-(1H-pyrazol-4-yl)phenyl)imidazolidin-2-one] yielded an IC50 of 0.2 to 2 µM.
Then `COc1cc(CN2C(=O)N(c3ccc(-c4cn[nH]c4)cn3)C[C@H]2CO)ccc1F` [Example 311, (S)-1-(5-(1H-Pyrazol-4-yl)pyridin-2-yl)-3-(4-fluoro-3-methoxybenzyl)-4-(hydroxymethyl)imidazolidin-2-one], with 0.0201 to 0.2 µM.
The result for `COc1cc(F)cc(CN2C(=O)N(c3ccc(-c4cn[nH]c4)cn3)C[C@H]2CO)c1` [Example 312, (S)-1-(5-(1H-pyrazol-4-yl)pyridin-2-yl)-3-(3-fluoro-5-methoxybenzyl)-4-(hydroxymethyl)imidazolidin-2-one] reads 0.0021 to 0.02 µM.
The result for `COc1cc(F)cc(CN2C(=O)N(c3ccc(-c4cn[nH]c4)cn3)C[C@@H]2CO)c1` [Example 313, (R)-1-(5-(1H-pyrazol-4-yl)pyridin-2-yl)-3-(3-fluoro-5-methoxybenzyl)-4-(hydroxymethyl)imidazolidin-2-one] reads 0.0201 to 0.2 µM; that for `COc1cccc(CN2C(=O)N(c3ccc(-c4cn[nH]c4)cn3)C[C@H]2CO)c1` [Example 314, (S)-1-(5-(1H-pyrazol-4-yl)pyridin-2-yl)-4-(hydroxymethyl)-3-(3-methoxybenzyl)imidazolidin-2-one], 0.0021 to 0.02 µM; that for `COc1cccc(CN2CCN(c3ccc(-c4ccncc4F)c(OC)n3)C2=O)c1` [Example 316, 1-(3′-Fluoro-2-methoxy-[3,4′-bipyridin]-6-yl)-3-(3-methoxybenzyl)imidazolidin-2-one], 0.0021 to 0.02 µM.
As for `COc1cccc(CN2CCN(c3ccc(-c4ccnc(F)c4)c(OC)n3)C2=O)c1` [Example 319, 1-(2′-fluoro-2-methoxy-[3,4′-bipyridin]-6-yl)-3-(3-methoxybenzyl)imidazolidin-2-one], the IC50 fell in the range of 0.0021 to 0.02 µM.
The result for `COc1cccc(CN2CCN(c3ccc(-c4c[nH]nc4C)c(OC)n3)C2=O)c1` [Example 320, 1-(6-methoxy-5-(5-methyl-1H-pyrazol-4-yl)pyridin-2-yl)-3-(3-methoxybenzyl)imidazolidin-2-one] reads 0.0021 to 0.02 µM; that for `O=c1n(Cc2cccc(F)c2)ccn1-c1ccc(-c2cn[nH]c2)cc1` [Example 321], 0.0021 to 0.02 µM; that for `COc1cccc(Cn2ccn(-c3ccc(-c4ccnc5[nH]ccc45)cc3)c2=O)c1` [Example 322, 1-(4-(1H-pyrrolo[2,3-b]pyridin-4-yl)phenyl)-3-(3-methoxybenzyl)-1H-imidazol-2(3H)-one], 0.0021 to 0.02 µM.
Then `O=c1n(CCc2ccccc2F)ccn1-c1ccc(-c2cn[nH]c2)cc1` [Example 330, 1-(4-(1H-pyrazol-4-yl)phenyl)-3-(2-fluorophenethyl)-1H-imidazol-2(3H)-one], with 0.0201 to 0.2 µM; and `CC(c1ccccc1)n1ccn(-c2ccc(-c3cn[nH]c3)cc2)c1=O` (stereo not shown) [Example 331, 1-(4-(1H-pyrazol-4-yl)phenyl)-3-(1-phenylethyl)-1H-imidazol-2(3H)-one], with 0.0021 to 0.02 µM; and `CC(c1ccccc1)n1ccn(-c2ccc(-c3cn[nH]c3)cc2)c1=O` (stereo not shown) [Example 332, 1-(4-(1H-pyrazol-4-yl)phenyl)-3-(1-phenylethyl)-1H-imidazol-2(3H)-one], with 0.0201 to 0.2 µM.
The result for `O=c1n(Cc2cccc(OC(F)F)c2)ccn1-c1ccc(-c2cn[nH]c2)cc1` [Example 333, 1-(4-(1H-pyrazol-4-yl)phenyl)-3-(3-(difluoromethoxy)benzyl)-1H-imidazol-2(3H)-one] reads 0.0021 to 0.02 µM; that for `COc1cccc(Cn2ccn(-c3ccc(-c4cn[nH]c4)cc3)c2=O)c1` [Example 334, l-(4-(1H-pyrazol-4-yl)phenyl)-3-(3-methoxybenzyl)-1H-imidazol-2(3H)-one], < 0.002 µM.
On to `O=c1n(CCc2ccccc2)ccn1-c1ccc(-c2cn[nH]c2)cc1` [Example 335, 1-(4-(1H-pyrazol-4-yl)phenyl)-3-phenethyl-1H-imidazol-2(3H)-one], for which the half-maximal inhibitory concentration (IC50) is 0.0201 to 0.2 µM.
Then `COc1cc(F)cc(Cn2ccn(-c3ccc(-c4cn[nH]c4)cc3)c2=O)c1` [Example 336, 1-(4-(1H-pyrazol-4-yl)phenyl)-3-(3-fluoro-5-methoxybenzyl)-1H-imidazol-2(3H)-one], with 0.0021 to 0.02 µM; and `COc1cccc(Cn2ccn(-c3ccc(-c4cn[nH]c4)cc3)c2=O)c1F` [Example 337, 1-(4-(1H-pyrazol-4-yl)phenyl)-3-(2-fluoro-3-methoxybenzyl)-1H-imidazol-2(3H)-one], with 0.0201 to 0.2 µM.
The result for `COc1ccc(F)c(Cn2ccn(-c3ccc(-c4cn[nH]c4)cc3)c2=O)c1` [Example 338, 1-(4-(1H-pyrazol-4-yl)phenyl)-3-(2-fluoro-5-methoxybenzyl)-1H-imidazol-2(3H)-one] reads 0.0201 to 0.2 µM.
As to `COc1cccc(Cn2ccn(-c3ccc(-c4cn[nH]c4)c(OC)c3)c2=O)c1` [Example 342, 1-(3-methoxy-4-(1H-pyrazol-4-yl)phenyl)-3-(3-methoxybenzyl)-1H-imidazol-2(3H)-one], the IC50 is < 0.002 µM.
Then `COc1cc(F)cc(Cn2ccn(-c3ccc(-c4cn[nH]c4)c(OC)c3)c2=O)c1` [Example 343, 1-(3-fluoro-5-methoxybenzyl)-3-(3-methoxy-4-(1H-pyrazol-4-yl)phenyl)-1H-imidazol-2(3H)-one], with 0.0021 to 0.02 µM; and `COc1cccc(Cn2ccn(-c3ccc(-c4cn[nH]c4)cn3)c2=O)c1` [Example 344, 1-(5-(1H-pyrazol-4-yl)pyridin-2-yl)-3-(3-methoxybenzyl)-1H-imidazol-2(3H)-one], with 0.0021 to 0.02 µM; and `COc1cc(F)cc(Cn2ccn(-c3ccc(-c4cn[nH]c4)cn3)c2=O)c1` [Example 345, 1-(5-(1H-pyrazol-4-yl)pyridin-2-yl)-3-(3-fluoro-5-methoxybenzyl)-1H-imidazol-2(3H)-one], with 0.0021 to 0.02 µM.
Then `COc1cc(Cn2ccn(-c3ccc(-c4cn[nH]c4)cn3)c2=O)ccc1F` [Example 346, 1-(5-(1H-pyrazol-4-yl)pyridin-2-yl)-3-(4-fluoro-3-methoxybenzyl)-1H-imidazol-2(3H)-one], with 0.0201 to 0.2 µM; and `O=c1n(Cc2cccc(OCC3CC3)c2)ccn1-c1ccc(-c2cn[nH]c2)cn1` [Example 347, 1-(5-(1H-pyrazol-4-yl)pyridin-2-yl)-3-(3-(cyclopropylmethoxy)benzyl)-1H-imidazol-2(3H)-one], with 0.0201 to 0.2 µM; and `CCc1cc(-n2ccn(Cc3ccc(F)c(OC)c3)c2=O)ccc1-c1cn[nH]c1` [Example 348, 1-(3-ethyl-4-(1H-pyrazol-4-yl)phenyl)-3-(4-fluoro-3-methoxybenzyl)-1H-imidazol-2(3H)-one], with 0.0201 to 0.2 µM.
The result for `COc1cccc(C(C(=O)O)n2ccn(-c3ccc(-c4cn[nH]c4)cn3)c2=O)c1` (stereo not shown) [Example 351, 2-(3-(5-(1H-pyrazol-4-yl)pyridin-2-yl)-2-oxo-2,3-dihydro-1H-imidazol-1-yl)-2-(3-methoxyphenyl)acetic acid] reads 0.2 to 2 µM.
Turning to `COc1cccc(C(C(=O)O)n2ccn(-c3ccc(-c4cn[nH]c4)c(OC)c3)c2=O)c1` (stereo not shown) [Example 352, 2-(3-(3-methoxy-4-(1H-pyrazol-4-yl)phenyl)-2-oxo-2,3-dihydro-1H-imidazol-1-yl)-2-(3-methoxyphenyl)acetic acid], the IC50 lay within 0.2 to 2 µM.
